PMC11945486, “TAS1R2/TAS1R3 Single-Nucleotide Polymorphisms Affect Sweet Taste Receptor Activation by Sweeteners: The SWEET Project” (Nutrients, 2025)
No end group written: not given here.

T1: human TAS1R2-I234V/TAS1R3-WT (Homo sapiens, UniProt Q7RTX0+Q8TE23, I234V)
T1 construct: expressed in transfected cells; host or cells: HEK293T-Gα16gust44
T1 sequence (Q8TE23 20-839 I234V): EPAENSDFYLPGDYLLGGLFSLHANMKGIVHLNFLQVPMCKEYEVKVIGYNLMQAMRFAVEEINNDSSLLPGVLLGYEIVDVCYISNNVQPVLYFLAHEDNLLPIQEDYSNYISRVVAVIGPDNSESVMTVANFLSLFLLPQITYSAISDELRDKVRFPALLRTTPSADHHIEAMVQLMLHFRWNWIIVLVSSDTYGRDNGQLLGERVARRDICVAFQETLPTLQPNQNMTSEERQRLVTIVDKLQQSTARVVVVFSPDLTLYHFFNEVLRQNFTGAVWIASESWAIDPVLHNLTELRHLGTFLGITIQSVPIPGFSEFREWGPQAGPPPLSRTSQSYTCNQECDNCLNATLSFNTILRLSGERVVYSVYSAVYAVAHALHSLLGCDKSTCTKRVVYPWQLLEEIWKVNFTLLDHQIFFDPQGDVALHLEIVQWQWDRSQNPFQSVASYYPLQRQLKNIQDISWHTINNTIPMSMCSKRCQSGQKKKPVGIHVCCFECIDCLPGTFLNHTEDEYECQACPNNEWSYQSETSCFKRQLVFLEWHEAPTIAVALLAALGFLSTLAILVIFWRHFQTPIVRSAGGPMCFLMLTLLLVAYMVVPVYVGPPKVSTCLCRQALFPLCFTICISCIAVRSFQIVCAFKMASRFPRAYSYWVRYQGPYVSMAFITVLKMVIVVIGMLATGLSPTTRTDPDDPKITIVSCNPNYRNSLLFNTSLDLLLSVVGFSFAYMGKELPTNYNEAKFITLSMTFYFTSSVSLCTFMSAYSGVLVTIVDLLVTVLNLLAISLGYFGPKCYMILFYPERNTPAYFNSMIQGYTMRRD
T1 sequence (Q7RTX0 21-852): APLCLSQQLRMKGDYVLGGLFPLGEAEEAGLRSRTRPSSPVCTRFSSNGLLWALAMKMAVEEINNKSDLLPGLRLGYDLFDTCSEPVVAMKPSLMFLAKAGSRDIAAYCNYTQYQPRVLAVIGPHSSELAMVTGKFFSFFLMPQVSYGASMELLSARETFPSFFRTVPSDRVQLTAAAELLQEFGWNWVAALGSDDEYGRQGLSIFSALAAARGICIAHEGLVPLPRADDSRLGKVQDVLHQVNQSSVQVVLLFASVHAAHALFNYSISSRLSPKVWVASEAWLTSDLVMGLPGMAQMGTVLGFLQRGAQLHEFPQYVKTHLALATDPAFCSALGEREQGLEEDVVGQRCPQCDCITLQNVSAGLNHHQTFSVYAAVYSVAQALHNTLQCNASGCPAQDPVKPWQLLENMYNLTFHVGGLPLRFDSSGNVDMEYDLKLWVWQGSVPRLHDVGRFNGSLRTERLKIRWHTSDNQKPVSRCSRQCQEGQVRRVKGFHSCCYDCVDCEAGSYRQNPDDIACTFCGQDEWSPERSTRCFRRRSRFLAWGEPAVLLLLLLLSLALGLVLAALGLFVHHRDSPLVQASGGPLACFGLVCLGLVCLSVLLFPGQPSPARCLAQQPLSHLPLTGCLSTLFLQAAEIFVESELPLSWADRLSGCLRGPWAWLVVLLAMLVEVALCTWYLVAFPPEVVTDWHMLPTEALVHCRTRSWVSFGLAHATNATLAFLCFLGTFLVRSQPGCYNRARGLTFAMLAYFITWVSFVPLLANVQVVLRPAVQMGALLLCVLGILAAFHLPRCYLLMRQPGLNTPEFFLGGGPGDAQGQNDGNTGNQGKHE


Target: T1, human TAS1R2-I234V/TAS1R3-WT
Experiment: Calcium mobilisation assay, TAS1R2 variant I234V with TAS1R3-WT
Assay type: cell-based
Conditions: for Max ΔF/F0: maximal signal amplitude
Excerpt: The coding sequences for TAS1R2 and TAS1R3 were commercially synthesised, and the human codon was optimised for expression in human cells. The coding sequences of human TAS1R2 and TAS1R3 were subcloned and inserted into the mammalian expression vectors pcDNA6/myc-HisA and pcDNA4/myc-HisA (Invitrogen; Thermo Fisher Scientific; Illkirch, France) between the EcoRI and NotI restriction sites, generating the plasmids pcDNA6-TAS1R2 and pcDNA4-TAS1R3, respectively. To increase protein expression in mammalian cells, an upstream start codon was used, which was a sequence called MAX, corresponding to the QBI SP163 element also described in pcDNA4-HisMax (Invitrogen; Thermo Fisher Scientific; Illkirch, France). To measure the expression level of the receptor by immunohistochemistry, we used the FLAG sequence ([…]) in the C-terminal position, which encodes the FLAG tag epitope. SNP variants of TAS1R2 and TAS1R3 were constructed based on […], respectively, using site-directed mutagenesis (Genewiz; Leipzig, Germany).
The HEK293T cells were kindly provided by Jay P. Slack (Givaudan Flavors Corporation; Cincinnati, OH, USA). HEK293T cells stably transfected with Gα16gust44 [43, 67] were seeded in poly-D-lysine-coated clear-bottom black 96-well plates (0.35 × 10^5 cells/well) in high-glucose DMEM supplemented with 2 mM GlutaMAX, 10% dialysed foetal bovine serum with penicillin/streptomycin and G418 (400 μg/mL) at 37 °C and 6.3% CO2 in a humidified atmosphere as previously reported. […] As a negative control, HEK293T cells were mock-transfected with the empty expression vector. After a further 24 h of incubation, the HEK293T cells were washed with C1 buffer (130 mM NaCl, 5 mM KCl, 10 mM HEPES pH 7.4 and 2 mM CaCl2). The 96-well plates containing the cells were then stimulated with sweet-tasting compounds. […] Different concentration ranges were tested depending on the sweet compound injected. The Ca^2+ changes were expressed as fractional changes in fluorescent light intensity: ΔF/F = (F − F0)/F0, where F was the fluorescent light intensity at each point, and F0 was the value of emitted fluorescent light prior to stimulus application. To calculate dose–response relationships, the changes in fluorescence upon stimulus application were averaged, mock-subtracted and baseline-corrected. The dose–response data obtained were adjusted using a 4-parameter logistic equation. The half-maximal effective concentrations (EC50 values) and maximal signal amplitudes were calculated using SigmaPlot software (version 15.0) (Systat Software; San Jose, CA, USA).
For in vitro calcium mobilisation assay performed on hTAS1R2-SNPs, hTAS1R3-SNPs and mTAS1R3-I60T, 6 to 7 concentrations were tested for each sweet compound, plus buffer alone. All concentration–receptor combinations were measured in duplicate, and each experiment was repeated at least 4 times (8 wells/concentration). Results were expressed for each concentration as ΔF/F mean ± SEM and represented as dose–response curves.

Row | EC50 [µM] | R1 = Variant EC50/WT EC50 | Max ΔF/F0 | Molecule
1 | 20.1 ± 1.1 | 1.1 | 1.52 ± 0.03 | C=C(C)[C@@H]1CC=C(/C=N/O)CC1 [Perillartine, perillartine]
2 | 18.4 ± 0.6 | 1.1 | 1.14 ± 0.01 | C=C1C[C@@]23CC[C@H]4[C@@](C)(CCC[C@@]4(C)C(=O)O[C@@H]4O[C@H](CO)[C@@H](O)[C@H](O[C@@H]5O[C@H](CO)[C@@H](O)[C@H](O)[C@H]5O)[C@H]4O[C@@H]4O[C@H](CO)[C@@H](O)[C@H](O)[C@H]4O)[C@@H]2CC[C@]1(O[C@@H]1O[C@H](CO)[C@@H](O)[C@H](O[C@@H]2O[C@H](CO)[C@@H](O)[C@H](O)[C@H]2O)[C@H]1O[C@@H]1O[C@H](CO)[C@@H](O)[C@H](O)[C@H]1O)C3 [Rebaudioside M, rebaudioside M]
3 | 60 ± 7 | 0.7 | 0.75 ± 0.03 | OC[C@H]1O[C@H](O[C@]2(CCl)O[C@H](CCl)[C@@H](O)[C@@H]2O)[C@H](O)[C@@H](O)[C@H]1Cl [Sucralose]
4 |  | 1.1 | 1.34 ± 0.05 | brazzein (QDKCKKVYENYPVSKCQLANQCNYDCKLDKHARSGECFYDEKRNLQCICDYCEY; ends and bridges not checked; cysteine pairing not given here; UniProt P56552 1-54, looked up) [sweet-tasting protein obtained by recombinant production using the yeast Pichia pastoris]
5 |  | 1.8 | 1.25 ± 0.01 | thaumatin
6 | 13.8 ± 0.2 |  |  | thaumatin (protein, Eight disulfides, sweet-tasting plant protein, E957) ATFEIVNRCSYTVWAAASKGDAALDAGGRQLNSGESWTINVEPGTKGGKIWARTDCYFDDSGSGICKTGDCGGLLRCKRFGRPPTTLAEFSLNQYGKDYIDISNIKGFNVPMDFSPTTRGCRGVRCAADIVGQCPAKLKAPGGGCNDACTVFQTSEYCCTTGKCGPTEYSRFFKRLCPDAFSYVLDKPTTVTCPGSSNYRVTFCPTA

Further lines, the molecule ahead of its results:

Row | Molecule | EC50 [µM] | R1 = Variant EC50/WT EC50 | Max ΔF/F0
7 | CC1=CC(=O)NS(=O)(=O)O1 [Acesulfame K, acesulfame K] | 510 ± 63 | 0.7 | 0.41 ± 0.02
8 | O=S(=O)(O)NC1CCCCC1 [Cyclamate, cyclamate] | 2250 ± 42 |  | 
9 | C[C@H](CC[C@@H](O[C@@H]1O[C@H](CO[C@@H]2O[C@H](CO)[C@@H](O)[C@H](O)[C@H]2O)[C@@H](O)[C@H](O)[C@H]1O[C@@H]1O[C@H](CO)[C@@H](O)[C@H](O)[C@H]1O)C(C)(C)O)[C@H]1CC[C@@]2(C)[C@@H]3CC=C4[C@@H](CC[C@H](O[C@@H]5O[C@H](CO[C@@H]6O[C@H](CO)[C@@H](O)[C@H](O)[C@H]6O)[C@@H](O)[C@H](O)[C@H]5O)C4(C)C)[C@]3(C)[C@H](O)C[C@]12C [Mogroside V, mogroside V] | 19.4 ± 1.6 | 1.1 | 1.28 ± 0.04
10 | COc1ccc(CCC(=O)c2c(O)cc(O[C@@H]3O[C@H](CO)[C@@H](O)[C@H](O)[C@H]3O[C@@H]3O[C@@H](C)[C@H](O)[C@@H](O)[C@H]3O)cc2O)cc1O [NHDC, neohesperidin dihydrochalcone] | 94.7 ± 6.8 | 1.2 | 0.80 ± 0.02
11 | COC(=O)[C@H](Cc1ccccc1)NC(=O)[C@H](CC(=O)O)NCCC(C)(C)C [Neotame] | 0.8 ± 0.08 | 1.0 | 0.66 ± 0.02
